Reference: patent US20060069132A1, “Azolecarboxamide herbicides” (priority 2004, published 2006)

Key:
[1] = test system: barnyardgrass; assay: Test A pre-/postemergence herbicide test; assay type: in vivo, Echinochloa crus-galli
Outline: (§1)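 Both application timings were run together: directed soil spray over freshly planted seeds in sandy loam, and runoff spray onto 2–10 cm seedlings. Evaluation after ~10 days in greenhouse used a 0–100 visual scale versus untreated controls.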

[2] = test system: large crabgrass; assay: Test A pre-/postemergence herbicide test; assay type: in vivo, Digitaria sanguinalis
Outline: as §1

[3] = test system: giant foxtail; assay: Test A pre-/postemergence herbicide test; assay type: in vivo, Setaria faberi
Outline: as §1

[4] = test system: morningglory; assay: Test A pre-/postemergence herbicide test; assay type: in vivo, Ipomoea spp.
Outline: as §1

[5] = test system: redroot pigweed; assay: Test A pre-/postemergence herbicide test; assay type: in vivo, Amaranthus retroflexus
Outline: as §1

[6] = test system: velvetleaf; assay: Test A pre-/postemergence herbicide test; assay type: in vivo, Abutilon theophrasti
Outline: as §1

[7] = test system: barnyardgrass; assay: Test B pre-/postemergence herbicide test; assay type: in vivo, Echinochloa crus-galli; conditions: for Barnyardgrass plant response rating: postemergence
Outline: (§2)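 Herbicidal effect was judged by eye on a 0–100 scale after plants stood 13 to 15 days in the greenhouse following pre- or postemergence treatment with surfactant-containing formulations.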

[8] = test system: Surinam grass; assay: Test B pre-/postemergence herbicide test; assay type: in vivo, Urochloa decumbens; conditions: for Surinam Grass plant response rating: postemergence
Outline: (§3)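 Plants compared with untreated controls 13–15 days post-treatment and given a visual 0–100 injury score. Applications: preemergence to seeds; postemergence at 1- to 4-leaf (2–18 cm); paddy species flooded, 2-leaf stage. Vehicle non-phytotoxic, surfactant included.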

[9] = test system: cocklebur; assay: Test B pre-/postemergence herbicide test; assay type: in vivo, Xanthium strumarium; conditions: for Cocklebur plant response rating: postemergence
Outline: as §2

[10] = test system: corn; assay: Test B pre-/postemergence herbicide test; assay type: in vivo, Zea mays; conditions: for Corn plant response rating: postemergence
Outline: as §3

[11] = test system: large crabgrass; assay: Test B pre-/postemergence herbicide test; assay type: in vivo, Digitaria sanguinalis; conditions: for Crabgrass, Large plant response rating: postemergence
Outline: as §3

[12] = test system: giant foxtail; assay: Test B pre-/postemergence herbicide test; assay type: in vivo, Setaria faberi; conditions: for Foxtail, Giant plant response rating: postemergence
Outline: as §3

[13] = test system: lambsquarters; assay: Test B pre-/postemergence herbicide test; assay type: in vivo, Chenopodium album; conditions: for Lambsquarters plant response rating: postemergence
Outline: as §3

[14] = test system: morningglory; assay: Test B pre-/postemergence herbicide test; assay type: in vivo, Ipomoea coccinea; conditions: for Morningglory plant response rating: postemergence
Outline: as §2

[15] = test system: pigweed; assay: Test B pre-/postemergence herbicide test; assay type: in vivo, Amaranthus retroflexus; conditions: for Pigweed plant response rating: postemergence
Outline: as §3

[16] = test system: rice; assay: Test B pre-/postemergence herbicide test; assay type: in vivo, Oryza sativa; conditions: preemergence
Outline: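 Greenhouse pot assay with simultaneous preemergence (treated seed) and postemergence (2–18 cm seedlings) applications of surfactant-containing, non-phytotoxic solvent formulations. Response scored visually 13–15 days later on a 0–100 scale, 100 meaning complete control.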

[17] = test system: velvetleaf; assay: Test B pre-/postemergence herbicide test; assay type: in vivo, Abutilon theophrasti; conditions: for Velvetleaf plant response rating: postemergence
Outline: as §3

[18] = test system: blackgrass; assay: Test B postemergence herbicide test; assay type: in vivo, Alopecurus myosuroides; conditions: postemergence
Outline: (§4)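 Treated at 2-leaf (paddy) or 1–4-leaf, 2–18 cm (postemergence); greenhouse 13–15 d; visual score vs control, 0 none to 100 complete control; dash = not tested.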

[19] = test system: wheat; assay: Test B postemergence herbicide test; assay type: in vivo, Triticum aestivum; parameters: key to Wheat plant response rating: 0 = no effect, 100 = complete control; conditions: postemergence
Outline: (§5)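 Plants grow to 1- to 4-leaf stage (2–18 cm) for postemergence spraying, or to 2-leaf stage for the paddy test. Formulated compound is applied. Greenhouse holding lasts 13–15 days. Response is scored visually relative to controls, 0 no effect to 100 complete control; a dash means no result.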

[20] = test system: wild oat; assay: Test B postemergence herbicide test; assay type: in vivo, Avena fatua; conditions: postemergence
Outline: as §5

[21] = test system: rice; assay: Test B flooded paddy test; assay type: in vivo, Oryza sativa; conditions: 1000 g ai/ha, scale 0 to 100 (0 no effect, 100 complete control)
Outline: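 Formulated test chemicals went onto postemergence plants measuring 2 to 18 cm, at one to four leaves. For the paddy assay, species had reached two leaves. Scoring took place 13–15 days later by eye, relative to untreated plants, using 0 for no effect up to 100 for full control.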

[22] = test system: small flower umbrella sedge; assay: Test B flooded paddy test; assay type: in vivo, Cyperus difformis; conditions: 1000 g ai/ha, scale 0 to 100 (0 no effect, 100 complete control)
Outline: as §4

[23] = test system: ducksalad; assay: Test B flooded paddy test; assay type: in vivo, Heteranthera limosa; conditions: 1000 g ai/ha, scale 0 to 100 (0 no effect, 100 complete control)
Outline: as §4

[24] = test system: barnyardgrass; assay: Test B flooded paddy test; assay type: in vivo, Echinochloa crus-galli; conditions: 1000 g ai/ha, scale 0 to 100 (0 no effect, 100 complete control)
Outline: as §4

[25] = Postemergence, 500 g ai/ha, 0 to 100 scale, 0 no effect, 100 complete control
[26] = Postemergence, 2000 g ai/ha, 0 to 100 scale, 0 no effect, 100 complete control
[27] = Preemergence, 2000 g ai/ha, visual rating, 0 to 100 scale (0 no effect, 100 complete control)
[28] = preemergence, 500 g ai/ha, visual injury, 0 to 100 scale (0 no effect, 100 complete control)
[29] = 125 g ai/ha, 0 is no effect, 100 is complete control, preemergence
[30] = 125 g ai/ha, visual rating, scale 0 (no effect) to 100 (complete control)
[31] = 500 g ai/ha, visual rating, 0 = no effect, 100 = complete control, preemergence
[32] = 500 g ai/ha, scale 0 to 100, 0 is no effect, 100 is complete control

## C#CCOC(=O)c1cccc(NC(=O)c2cc(C(C)(C)C)nn2C)n1 [Compound 317]
[1]; [25]
  Barnyardgrass plant response rating: 0
[1]; [26]
  Plant response rating, Barnyardgrass: 0
[1]; [27]
  Barnyardgrass plant response rating: 0
[1]; [28]
  Barnyardgrass plant response rating: 0
[2]; [25]
  Crabgrass, Large plant response rating: 10
[2]; [26]
  Plant response rating, Crabgrass, Large: 10
[2]; [27]
  Crabgrass, Large plant response rating: 10
[2]; [28]
  Crabgrass, Large plant response rating: 0
[3]; [25]
  Foxtail, Giant plant response rating: 0
[3]; [26]
  Plant response rating, Foxtail, Giant: 0
[3]; [27]
  Foxtail, Giant plant response rating: 0
[3]; [28]
  Foxtail, Giant plant response rating: 0
[4]; [25]
  Morningglory plant response rating: 0
[4]; [26]
  Plant response rating, Morningglory: 0
[4]; [27]
  Morningglory plant response rating: 0
[4]; [28]
  Morningglory plant response rating: 0
[5]; [25]
  Pigweed plant response rating: 0
[5]; [26]
  Plant response rating, Pigweed: 10
[5]; [27]
  Pigweed plant response rating: 30
[5]; [28]
  Pigweed plant response rating: 20
[6]; [25]
  Velvetleaf plant response rating: 0
[6]; [26]
  Plant response rating, Velvetleaf: 0
[6]; [27]
  Velvetleaf plant response rating: 30
[6]; [28]
  Velvetleaf plant response rating: 0
[7]; [29]
  Plant response rating (0 to 100 scale), Barnyardgrass: 0
[7]; [30]
  Barnyardgrass plant response rating: 0
[7]; [31]
  Plant response rating, Barnyardgrass: 0
[7]; [32]
  Barnyardgrass plant response rating: 0
[8]; [29]
  Plant response rating (0 to 100 scale), Surinam Grass: 0
[8]; [30]
  Surinam Grass plant response rating: 0
[8]; [31]
  Plant response rating, Surinam Grass: 0
[8]; [32]
  Surinam Grass plant response rating: 0
[9]; [29]
  Plant response rating (0 to 100 scale), Cocklebur: 0
[9]; [30]
  Cocklebur plant response rating: 0
[9]; [31]
  Plant response rating, Cocklebur: 0
[9]; [32]
  Cocklebur plant response rating: 0
[10]; [29]
  Plant response rating (0 to 100 scale), Corn: 0
[10]; [30]
  Corn plant response rating: 0
[10]; [31]
  Plant response rating, Corn: 0
[10]; [32]
  Corn plant response rating: 0
[11]; [29]
  Plant response rating (0 to 100 scale), Crabgrass, Large: 0
[11]; [30]
  Crabgrass, Large plant response rating: 0
[11]; [31]
  Plant response rating, Crabgrass, Large: 0
[11]; [32]
  Crabgrass, Large plant response rating: 0
[12]; [29]
  Plant response rating (0 to 100 scale), Foxtail, Giant: 0
[12]; [30]
  Foxtail, Giant plant response rating: 0
[12]; [31]
  Plant response rating, Foxtail, Giant: 0
[12]; [32]
  Foxtail, Giant plant response rating: 0
[13]; [29]
  Plant response rating (0 to 100 scale), Lambsquarters: 0
[13]; [30]
  Lambsquarters plant response rating: 0
[13]; [31]
  Plant response rating, Lambsquarters: 0
[13]; [32]
  Lambsquarters plant response rating: 50
[14]; [29]
  Plant response rating (0 to 100 scale), Morningglory: 0
[14]; [30]
  Morningglory plant response rating: 0
[14]; [31]
  Plant response rating, Morningglory: 0
[14]; [32]
  Morningglory plant response rating: 0
[15]; [29]
  Plant response rating (0 to 100 scale), Pigweed: 0
[15]; [30]
  Pigweed plant response rating: 0
[15]; [31]
  Plant response rating, Pigweed: 0
[15]; [32]
  Pigweed plant response rating: 0
[16]; 125 g ai/ha, 0 is no effect, 100 is complete control
  Plant response rating (0 to 100 scale), Rice: 0
[16]; 500 g ai/ha, visual rating, 0 = no effect, 100 = complete control
  Plant response rating, Rice: 0
[17]; [29]
  Plant response rating (0 to 100 scale), Velvetleaf: 0
[17]; [30]
  Velvetleaf plant response rating: 0
[17]; [31]
  Plant response rating, Velvetleaf: 0
[17]; [32]
  Velvetleaf plant response rating: 0
[18]; [30]
  Blackgrass plant response rating: 0
[18]; [32]
  Blackgrass plant response rating: 0
[19]; [30]
  Wheat plant response rating: 0
[19]; [32]
  Wheat plant response rating: 0
[20]; [30]
  Oat, Wild plant response rating: 0
[20]; [32]
  Oat, Wild plant response rating: 0
[21]
  Rice plant response rating: 0
[22]
  Sedge, Umbrella plant response rating: 0
[23]
  Ducksalad plant response rating: 0
[24]
  Barnyardgrass plant response rating: 0
